Laboratory results published in patent US5856359A, “Thyroxine/cyclodextrin complexes and pharmaceutical compositions containing the same” (Hexal AG, priority 1995, dated 1999).
Structures can show the parent of a compound that is named as a salt.

Experiments:
Format in all cases: physicochemical
[1] = Physical stability of aqueous gels and solutions on storage
Procedure: 150 mg of a water swellable polymer (i.e. Klucel; Hercules Corp. USA) was added.
The aqueous gel containing γ-cyclodextrin solubilized thyroxine was prepared by mixing at room temperature 150 mg of Pionier NP37 (polyacrylicacid) with 10 ml of 10% aqueous γ-cyclodextrin solution containing 300 mg solubilized L-thyroxine-Na.
10 ml of the aqueous Pionier NP37-thyroxine/γ-cyclodextrin formulation was stored in sealed polyethylene bags as well as in capped glass vials under normal laboratory conditions (22° C. exposed to day light) for two weeks and the turbidity of the samples was investigated.

[2] = Aqueous solubility of L-thyroxine sodium salt in the presence of cyclodextrins
Description: Interaction between L-thyroxine sodium and cyclodextrins in presence of water.
One evidence of the interaction between L-thyroxine and cyclodextrins is that the cyclodextrins increase the aqueous solubility of the thyroxine as shown in Table 1.
Solubility of L-thyroxine sodium salt in the presence of CDs (mg/ml)

[3] = Aqueous solubility of L-thyroxine free acid in the presence of γ-cyclodextrin
Procedure: This poor solubility can be affected positively by employing γ-cyclodextrin. The effect of γ-cyclodextrin as to the aqueous solubility of thyroxine acid is shown by the results in the table below:
Aqueous solubility of thyroxine free acid in the
presence of γ-cyclodextrin at 25° C. studied on two

## OC[C@H]1O[C@@H]2O[C@H]3[C@H](O)[C@@H](O)[C@@H](O[C@H]4[C@H](O)[C@@H](O)[C@@H](O[C@H]5[C@H](O)[C@@H](O)[C@@H](O[C@H]6[C@H](O)[C@@H](O)[C@@H](O[C@H]7[C@H](O)[C@@H](O)[C@@H](O[C@H]8[C@H](O)[C@@H](O)[C@@H](O[C@H]9[C@H](O)[C@@H](O)[C@@H](O[C@H]1[C@H](O)[C@H]2O)O[C@@H]9CO)O[C@@H]8CO)O[C@@H]7CO)O[C@@H]6CO)O[C@@H]5CO)O[C@@H]4CO)O[C@@H]3CO [γ-cyclodextrin]
[1]; aqueous γ-cyclodextrin solution without L-thyroxine-Na, after one week of storage
  precipitate formation: small amount of white precipitate formation
[1]; clear aqueous γ-cyclodextrin solutions without L-thyroxine-Na, or L-thyroxine-Na/γ-cyclodextrin hydrogels
  haze / precipitate formation on storage: hazy within three days

## N[C@@H](Cc1cc(I)c(Oc2cc(I)c(O)c(I)c2)c(I)c1)C(=O)O [L-thyroxine sodium salt, Levothyroxine sodium]
[2]; water with 2-hydroxypropylated-β-cyclodextrin, 2-hydroxypropylated-β-cyclodextrin 1.0%
  solubility: 1440 µg/mL
[2]; water with 2-hydroxypropylated-β-cyclodextrin, 2-hydroxypropylated-β-cyclodextrin 5.0%
  solubility: 2900 µg/mL
[2]; water with 2-hydroxypropylated-β-cyclodextrin, 2-hydroxypropylated-β-cyclodextrin 7.0%
  solubility: 2740 µg/mL
[2]; water with 2-hydroxypropylated-β-cyclodextrin, 2-hydroxypropylated-β-cyclodextrin 10.0%
  solubility: 2770 µg/mL
[2]; water with 2-hydroxypropylated-β-cyclodextrin, 2-hydroxypropylated-β-cyclodextrin 12.0%
  solubility: 3050 µg/mL
[2]; water with 2-hydroxypropylated-β-cyclodextrin, 2-hydroxypropylated-β-cyclodextrin 15.0%
  solubility: 3140 µg/mL
[2]; water with 2-hydroxypropylated-β-cyclodextrin, 2-hydroxypropylated-β-cyclodextrin 3.0%
  solubility: 3100 µg/mL
[2]; water with heptakis-2,6-di-o-methyl-β-cyclodextrin, heptakis-2,6-di-O-methyl-β-cyclodextrin 1.0%
  solubility: 3160 µg/mL
[2]; water with heptakis-2,6-di-o-methyl-β-cyclodextrin, heptakis-2,6-di-O-methyl-β-cyclodextrin 3.0%
  solubility: 5500 µg/mL
[2]; water with randomly-methylated-β-cyclodextrin, randomly-methylated-β-cyclodextrin 1.0%
  solubility: 3700 µg/mL
[2]; water with randomly-methylated-β-cyclodextrin, randomly-methylated-β-cyclodextrin 5.0%
  solubility: 8360 µg/mL
[2]; water with randomly-methylated-β-cyclodextrin, randomly-methylated-β-cyclodextrin 7.0%
  solubility: 9330 µg/mL
[2]; water with randomly-methylated-β-cyclodextrin, randomly-methylated-β-cyclodextrin 10.0%
  solubility: 10300 µg/mL
[2]; water with randomly-methylated-β-cyclodextrin, randomly-methylated-β-cyclodextrin 12.0%
  solubility: 13300 µg/mL
[2]; water with randomly-methylated-β-cyclodextrin, randomly-methylated-β-cyclodextrin 15.0%
  solubility: 16800 µg/mL
[2]; water with randomly-methylated-β-cyclodextrin, randomly-methylated-β-cyclodextrin 3.0%
  solubility: 6150 µg/mL
[2]; water with γ-cyclodextrin, γ-cyclodextrin 1.0%
  solubility: 5480 µg/mL
[2]; water with γ-cyclodextrin, γ-cyclodextrin 5.0%
  solubility: 16900 µg/mL
[2]; water with γ-cyclodextrin, γ-cyclodextrin 7.0%
  solubility: 26600 µg/mL
[2]; water with γ-cyclodextrin, γ-cyclodextrin 12.0%
  solubility: 35100 µg/mL
[2]; water with γ-cyclodextrin, γ-cyclodextrin 15.0%
  solubility: 44200 µg/mL
[2]; water with γ-cyclodextrin, γ-cyclodextrin 3.0%
  solubility: 12100 µg/mL
[2]; water, 1.0% maltosyl-β-cyclodextrin, Maltosyl-β-cyclodextrin 1.0%
  solubility: 2290 µg/mL
[2]; water, 2-hydroxypropylated-β-cyclodextrin column, 0% (no CDs)
  solubility: 2000 µg/mL
[2]; water, 3.0% maltosyl-β-cyclodextrin, Maltosyl-β-cyclodextrin 3.0%
  solubility: 2480 µg/mL
[2]; water, 5.0% dimethyl-β-cyclodextrin, heptakis-2,6-di-O-methyl-β-cyclodextrin 5.0%
  solubility: 7000 µg/mL
[2]; water, 5.0% maltosyl-β-cyclodextrin, Maltosyl-β-cyclodextrin 5.0%
  solubility: 2320 µg/mL
[2]; water, 7.0% dimethyl-β-cyclodextrin, heptakis-2,6-di-O-methyl-β-cyclodextrin 7.0%
  solubility: 7620 µg/mL
[2]; water, 7.0% maltosyl-β-cyclodextrin, Maltosyl-β-cyclodextrin 7.0%
  solubility: 2940 µg/mL
[2]; water, 10.0% maltosyl-β-cyclodextrin, Maltosyl-β-cyclodextrin 10.0%
  solubility: 2730 µg/mL
[2]; water, 12.0% dimethyl-β-cyclodextrin, heptakis-2,6-di-O-methyl-β-cyclodextrin 12.0%
  solubility: 12100 µg/mL
[2]; water, 12.0% maltosyl-β-cyclodextrin, Maltosyl-β-cyclodextrin 12.0%
  solubility: 2800 µg/mL
[2]; water, 15.0% dimethyl-β-cyclodextrin, heptakis-2,6-di-O-methyl-β-cyclodextrin 15.0%
  solubility: 14200 µg/mL
[2]; water, 15.0% maltosyl-β-cyclodextrin, Maltosyl-β-cyclodextrin 15.0%
  solubility: 2680 µg/mL
[2]; water, Maltosyl-β-cyclodextrin column, 0% (no CDs)
  solubility: 2000 µg/mL
[2]; water, heptakis-2,6-di-O-methyl-β-cyclodextrin column, 0% (no CDs)
  solubility: 2000 µg/mL
[2]; water, randomly-methylated-β-cyclodextrin column, 0% (no CDs)
  solubility: 2000 µg/mL
[2]; water, γ-cyclodextrin column, 0% (no CDs)
  solubility: 2000 µg/mL
[2]; γ-cyclodextrin, among unsubstituted cyclodextrins
  improvement of aqueous solubility of L-thyroxine sodium: improve the aqueous solubility of L-thyroxine sodium most remarkably

## thyroxine
[2]
  effect on the solubility of thyroxine: practically no effect
  improvement of aqueous solubility of thyroxine: did not significantly improve the aqueous solubility of thyroxine
  solubilizing potency of methylated-β-cyclodextrins for thyroxine versus γ-cyclodextrin: less potent solubilizers of thyroxine, than the chemically non-modified γ-cyclodextrin

## N[C@@H](Cc1cc(I)c(Oc2cc(I)c(O)c(I)c2)c(I)c1)C(=O)O [L-thyroxine free acid, 0-(4-hydroxy-3,5-diiodophenyl)-3,5-diiodotyrosine]
[3]; cyclodextrin 20% by weight
  enhancement of aqueous solubility of the acid form of thyroxine: enhanced by about ten-fold
[3]; water with γ-cyclodextrin, γ-cyclodextrin 5 g/100 ml, 25° C., 1-st run, read-out: solubility of thyroxine free acid
  solubility: 400 µg/mL
[3]; water with γ-cyclodextrin, γ-cyclodextrin 5 g/100 ml, 25° C., 2-nd run, read-out: solubility of thyroxine free acid
  solubility: 379 µg/mL
[3]; water with γ-cyclodextrin, γ-cyclodextrin 10 g/100 ml, 25° C., 1-st run, read-out: solubility of thyroxine free acid
  solubility: 646 µg/mL
[3]; water with γ-cyclodextrin, γ-cyclodextrin 10 g/100 ml, 25° C., 2-nd run, read-out: solubility of thyroxine free acid
  solubility: 652 µg/mL
[3]; water with γ-cyclodextrin, γ-cyclodextrin 12 g/100 ml, 25° C., 1-st run, read-out: solubility of thyroxine free acid
  solubility: 765 µg/mL
[3]; water with γ-cyclodextrin, γ-cyclodextrin 12 g/100 ml, 25° C., 2-nd run, read-out: solubility of thyroxine free acid
  solubility: 800 µg/mL
[3]; water with γ-cyclodextrin, γ-cyclodextrin 15 g/100 ml, 25° C., 1-st run, read-out: solubility of thyroxine free acid
  solubility: 1020 µg/mL
[3]; water with γ-cyclodextrin, γ-cyclodextrin 15 g/100 ml, 25° C., 2-nd run, read-out: solubility of thyroxine free acid
  solubility: 1000 µg/mL
[3]; water with γ-cyclodextrin, γ-cyclodextrin 20 g/100 ml, 25° C., 1-st run, read-out: solubility of thyroxine free acid
  solubility: 1390 µg/mL
[3]; water with γ-cyclodextrin, γ-cyclodextrin 20 g/100 ml, 25° C., 2-nd run, read-out: solubility of thyroxine free acid
  solubility: 1440 µg/mL
[3]; water, without cyclodextrin, read-out: aqueous solubility of the free acid form of L-thyroxine
  solubility: 110 to 150 µg/mL
[3]; water, γ-cyclodextrin 0 g/100 ml, 25° C., 1-st run, read-out: solubility of thyroxine free acid
  solubility: 110 µg/mL
[3]; water, γ-cyclodextrin 0 g/100 ml, 25° C., 2-nd run, read-out: solubility of thyroxine free acid
  solubility: 150 µg/mL
